Reference: US20140162309A1, “Arsenical Fluorescent Agents and Assays” (priority 2010, published 2014)

Assay: Fluorimetric response of arsenical dye upon introduction of TSH2 (liquid-liquid method)
From the text: When unbound, FlAsH-EDT2 is virtually non-fluorescent. Upon binding of four sulfur atoms, free rotation about the As—C bond is restricted, and the dye becomes brightly fluorescent. Since this visualization method labels proteins inside of cells with low background fluorescence, we hypothesized that this molecular sensor could detect the parasite metabolite without interference from other thiols present in biological fluids. The binding of two molecules of TSH2 should prevent the free rotation about the As—C bond in FlAsH, causing a fluorimetric response.
FlAsH-EDT2 was virtually non-fluorescent, but upon introduction of TSH2, the fluorescence intensity rose. After approximately 10 minutes, the reaction reached saturation. […] The excitation and emission maxima for the conjugate were 505 nm and 527 nm respectively. This increase in fluorescence is readily detectable without a fluorimeter using a simple handheld black light such as those used at airport security checkpoints. This detection method could be implemented easily in a low technology, resource poor setting. We examined the limits of detection of the metabolite with FlAsH-EDT2. In our liquid-liquid method, a 10-fold excess of the metabolite is sufficient to observe a fluorimetric response within twenty minutes. Therefore, 2.5 nmol of the dye can be used to detect 25 nmol of the metabolite. While lower concentrations were detectable using a fluorimeter, the conjugation was too slow to be practical. However, FlAsH-EDT2 was not designed and is not optimized for this purpose, and it requires two molecules of TSH2 to bind in order to achieve the desired fluorescence response.

With `O=C(O)c1ccccc1-c1c2ccc(=O)c([As]3SCCS3)c-2oc2c([As]3SCCS3)c(O)ccc12` [FlAsH-EDT2] the “amount of metabolite detected (limit of detection)” value (2.5 nmol of the dye, liquid-liquid method) was 25 nmol, the “time until the reaction reached saturation” value (after introduction of TSH2) was “approximately 10 minutes” and the “excess of the metabolite sufficient to observe a fluorimetric response” value (liquid-liquid method, response within twenty minutes) was 10 fold. The “fluorescence of unbound dye as % of the fluorescence of the FlAsH-(TSH2)2 conjugate” value (normalized fluorescence measurements) was 0.4%.
